Measured values: patent publication US20090233307A1, “METHODS FOR DETECTION OF SINGLE STRAND BREAKS IN DNA” (The University of North Carolina at Chapel Hill, priority 2008, published 2009)

Columns and labels:
DT40 cells [1] = test: SSB repair through NAD(P)H depletion, DT40 cells; format: cell-based, chicken; settings: DT40 cells exposed to MMS
Protocol: (§1) SSB repair capacity was determined by a real-time colorimetric assay that measures intracellular NAD(P)H levels (Tano et al., DNA Repair, 6, 869-875 (2007)). PARP-1 activation during SSB repair leads to NAD^+ consumption, which can be indirectly monitored through NAD(P)H depletion (Nakamura et al., Nucleic Acids Res., 31, e104 (2003)). Briefly, 5×10^3 cells/well were seeded into a 96-well plate. After a 30 minute incubation period, the cells were treated with 1 mM MMS quickly followed by the addition of a dye containing XTT (Sigma) and 1-methoxy PMS (Sigma). For up to 4 hours, the NAD(P)H-dependent conversion of the XTT tetrazolium salt to a yellow colored formazan dye was measured spectrophotometrically. Decreases in intracellular NAD(P)H levels were determined through comparison of values to those of the PBS control. Established methods for detecting SSBs have not been adequately characterized for pH effects on DNA structure and chemistry and also lack a high specificity for SSBs, primarily because of artifactual SSB formation. […] The accumulation of SSBs leads to PARP-1 over-activation and the consumption of NAD+, which is indirectly monitored in living cells through the measurement of intracellular NAD(P)H depletion using tetrazolium salts, such as XTT, during chemical exposure (Tano et al., DNA Repair, 6, 869-875 (2007)). […]

Pol β null cells = test: SSB repair through NAD(P)H depletion, Pol β null cells; format: cell-based, chicken; settings: Pol β null cells exposed to MMS
Protocol: as §1

DT40 cells [2] = test: Cell death in DT40 cells; format: cell-based; settings: unpublished data
[3] = system: Chinese hamster ovary (CHO) AA8 cells; test: OTX-coupled comet assay; format: cell-based; settings: 1 mM MMS 10 minutes
Protocol: Chinese hamster ovary (CHO) AA8 cells were seeded at a concentration 0.5×10^6 cell/mL into several 10 cm culture dishes with 10 mL of MEM-α media (Gibco) supplemented with 10% fetal bovine serum (heat inactivated; Sigma), 100 μg/mL penicillin, and 100 μg/mL streptomycin. These were allowed to grow for 48 hours at 37° C. and 5% CO2. Culture dishes were about 80-85% confluent at harvest.
Before cells were harvested for use in the comet assay, the lysis solution (2.5 M NaCl, 100 mM Na2-EDTA, 10 mM Trizma, pH 10) was completed with the addition of 10% (v/v) DMSO and 1% (v/v) Triton X-100, mixed thoroughly, and refrigerated at 4° C. A 0.5% solution of low melting point agarose (LMPA) was also prepared and allowed to equilibrate to 37° C. in a water bath. Partially frosted microscope slides, pre-coated several days before with 50 μL of 1% normal melting point agarose (NMPA), were labeled and set aside.
Prior to cell harvest, the media was removed and each dish was washed with 10 mL of 1×PBS. An additional 2 mL of 1×PBS was added to each dish and the cells were harvested using a rubber policeman. Harvested cells were combined into 15 mL centrifuged tubes and gently mixed by pipetting to obtain a homogenous cell sample. The cell count was obtained using a hemacytometer. The volume of cell sample needed to obtain 11,000 cells per slide to be prepared was added to a new 15 mL centrifuge tube and centrifuged for 5 minutes at 1,100 RPM. The supernatant was removed and the cell pellet resuspended in 1×PBS at a volume equal to 10 μL per slide to be prepared (e.g. 5 slides×10 μL per slide=50 μL 1×PBS total).
For each slide to be prepared, 10 μL of the cell sample was added to a 1.5 mL centrifuge tube. The cell layer of the slide was created by first gently mixing 100 μL of the 0.5% LMPA with the 10 μL of cell sample in the tube. This mixture was then added to a pre-coated slide and a coverslip placed onto the slide to create a thin layer of the cell mixture. Slides with cell layers were then refrigerated at 4° C. for 15 minutes to solidify the gel. After this incubation, the initial coverslips were removed and an additional 150 μL of 0.5% LMPA was added to each slide. A fresh coverslip was placed onto each slide to create a thin top layer and the slides were refrigerated for another 15 minutes. After removing the coverslip, completed slides that were receiving MMS treatment were placed in a slide chamber containing warmed MEM-α media with 1 mM MMS for 10 minutes. The slide chamber was kept warm by placing it within an incubator held at 37° C. After the 10 minutes, the slides were washed with 1×PBS for 5 minutes at room temperature and then transferred to slide chambers containing the chilled lysis solution. […]

[4] = system: AP sites in genomic DNA exposed to heat/acid conditions; test: OTX optimization for protection of AP sites from alkaline cleavage (alkaline gel electrophoresis); parameters: species or system chicken; settings: OTX 37° C. 1 hour, denaturation 100 mM NaOH (pH 12.8)
Protocol: AP sites were produced in stock DT40 DNA through exposure to heat/acid conditions. DT40 DNA was incubated in sodium citrate buffer (10 mM sodium citrate, 10 mM NaH2PO4, 10 mM NaCl pH 5) for 5 minutes at 70° C., followed by rapid chilling on ice to stop the reaction (Nakamura et al., Cancer Res., 58, 222-225 (1998)). Depurinated DNA was collected using Microcon® YM-3 centrifugal filter devices (Amicon Bioseparations). This DNA was then washed several times with HEPES buffer (50 mM, pH 7) supplemented with 1 mM 2,2,6,6-tetramethylpiperidine-N-oxyl (TEMPO). DNA was resuspended in HEPES buffer containing 1 mM TEMPO.
An alkaline gel electrophoresis protocol (AGE) (Drouin et al., in: Technologies for Detection of DNA Damage and Mutations (G. P. Pfeifer, ed.). Plenum Press, New York, N.Y., pp. 37-43 (1996)) with modifications was used to assess SSBs and ALSs in DNA from exposed cells. The 0.7% agarose gel was prepared in gel buffer (50 mM NaCl, 1 mM EDTA, pH 7) and deionized water. After forming, the gel was soaked in mild alkaline running buffer (30 mM NaOH, 1 mM EDTA, pH 12.4) for at least 30 minutes. Equal amounts of DNA (3-5 μg) were incubated for 1 hour at 37° C. in the presence or absence of 30 mM OTX (Aldrich) in 50 mM HEPES buffer. […] Following OTX exposure, the samples were denatured through treatment with an alkaline buffer (100 mM NaOH, 30 mM OTX, 50 mM HEPES, pH 12.8) for 20 minutes at 37° C. Samples then received loading buffer (10 mM NaOH, 95% formamide (Fluka), 0.05% bromophenol blue, 0.05% xylene cyanol) and were loaded onto the agarose gel. The gel was subjected to electrophoresis at a constant voltage (30 V) for 16 hours at 4° C. At the completion of electrophoresis, the gel was placed in neutralization buffer (400 mM Tris, pH 7.5) for 20 minutes at room temperature. […]
With knowledge of optimal AP site cleavage (pH≧12.2) and DNA denaturation (pH≦12.56) conditions, the utility of stabilizing AP sites prior to complete unwinding at high pH was assessed for subsequent gel electrophoresis. […]

For `NC(=O)c1cccc(N)c1` [3-aminobenzamide], the “protection from MMS-induced NAD(P)H depletion” value (DT40 cells [1]) was “mostly protected” and the “protection from MMS-induced NAD(P)H depletion” value (Pol β null cells) was “mostly protected”.
In the case of `CON` [Methoxyamine], the “concentration that induces cell death” value (DT40 cells [2]) is reported as 20 to 30 mM.
With `NOC1CCCCO1` (stereo not shown) [OTX, O-(tetrahydro-2H-pyran-2-yl)hydroxylamine] the “tail moments over the various incubation times with OTX protection” value ([3]; 300 mM OTX 0-4 hours at 37° C.) was “no significant increase in tail moments”, the “tail moment with OTX protection vs 1 hour incubation without OTX” value ([3]; 300 mM OTX, 1 hour incubation) was “significant decrease in tail moment” and the “tail moment, one hour incubation with OTX vs zero hour incubation control without OTX” value ([3]; 300 mM OTX, one hour) was “significant decrease in tail moment”. For the same compound, the “concentration that induces cell death” value (DT40 cells [2]) was 2 mM, the “optimum concentration to protect AP sites from alkaline cleavage” value [4] was 30 mM and the “OTX concentration with complete protection of AP sites from alkaline cleavage” value ([4]; electrophoresis pH 12.4) was ≥ 10 mM. The “OTX concentration with little to no protection of AP sites from alkaline cleavage” value ([4]; electrophoresis pH 12.4) was < 1 mM.
